Experimental data taken from patent US11820832B2, “Bispecific HER2 and CD3 binding molecules” (MEMORIAL SLOAN KETTERING CANCER CENTER, priority 2014, dated 2023).

Tests used:
[1] = tested on: HeLa cervical cancer cells; assay: HER2-BsAb redirected T cell cytotoxicity, 51Cr release assay; assay type: cell-based, human; conditions: pretreatment with lapatinib
Experimental: (§1) The ^51Cr release assay was performed with effector T cells cultured in vitro in the presence of anti-CD3 and anti-CD28 for about 14 days. […] 5000 target cells/well were mixed with 50,000 effector cells (E:T=10:1) and BsAb antibodies in 96-well polystyrene round-bottom plates (BD Biosciences) to a final volume of 250 μl/well. The plates were incubated at 37° C. for 4 h. […] Percentage of specific release was calculated using the formula: (experimental cpm−background cpm)/(total cpm−background cpm)×100%, where cpm represented counts per minute of ^51Cr released. […] EC50 was calculated using SigmaPlot software.
(§2) Cell cytotoxicity was assayed by ^51Cr release as previously described (Xu et al., Cancer immunology research 2015; 3:266-77), and EC50 was calculated using SigmaPlot software. Effector PBMC cells were purified from buffy coats purchased from the New York Blood Center. ATCs were first purified from human PBMC using Pan T cell isolation kit, and then activated and expanded for approximately 14 days with CD3/CD28 Dynabeads (Invitrogen) according to manufacturer's protocol.

[2] = tested on: SCCHN cell line PCI-30; assay: Cell proliferation assay (WST-8); assay type: cell-based, human; conditions: 10 nM kinase inhibitors, 10 μg/mL antibodies
Experimental: (§3) Cell proliferation was determined using an ELISA plate reader and the WST-8 kit (Dojindo technologies) following the manufacturer's instructions and using the formula: % survival rate=(Sample-Background)/(Negative control-Background). Lapatinib (MSKCC pharmacy) was ground using a mortar and pestle and suspended in DMSO as previously described. To determine statistical significance, the results were analyzed using one-way ANOVA using Prism 6.0.
(§4) For cell proliferation assays, 5,000 tumor cells were plated using RPMI-1640 supplemented with 10% FBS in a 96 well plate for 36 hours before being treated with lapatinib or the antibodies at the specified concentrations. Cell proliferation was determined using an ELISA plate reader and the WST-8 kit (Dojindo technologies) following the manufacturer's instructions and using the formula: % survival rate=(Sample-Background)/(Negative control-Background). Lapatinib (Memorial Sloan Kettering Cancer Center pharmacy) was ground using a mortar and pestle and suspended in DMSO as previously described (Chen et al., 2012, Molecular cancer therapeutics 11:660-669). To determine statistical significance, the results were analyzed using one-way ANOVA using Prism 6.0.
(§5) For tumor cell proliferation, 5,000 tumor cells were plated using RPMI-1640 supplemented with 10% fetal bovine serum (“FBS”) in a 96 well plate for 36 hours before being treated with—kinase inhibitors or the antibodies at the specified concentration. Cell proliferation was determined using the cell counting WST-8 kit (Dojindo technologies) following the manufacturer's instructions and using the formula: % survival rate=(Sample-Background)/(Negative control-Background). Lapatinib was ground using a mortar and pestle and suspended in DMSO as previously described (Chen et al., Molecular cancer therapeutics 2012; 11:660-9). To determine statistical significance, the results were analyzed using one-way ANOVA using Prism 6.0.

[3] = tested on: U2OS osteosarcoma cells; assay: Cell proliferation assay (WST-8); assay type: cell-based, human; conditions: 10 nM kinase inhibitors, 10 μg/mL antibodies
Experimental: as §3, §4, §5

[4] = tested on: HeLa cervical carcinoma cells; assay: Cell proliferation assay (WST-8); assay type: cell-based, human; conditions: 10 nM kinase inhibitors, 10 μg/mL antibodies
Experimental: as §3, §4, §5

[5] = tested on: trastuzumab-sensitive breast carcinoma cell line SKBR3; assay: Cell proliferation assay (WST-8); assay type: cell-based, human; conditions: lapatinib 10 nM, 72 hours
Experimental: as §3, §4, §5

[6] = tested on: HCC1954 breast cancer xenografts; assay: Xenograft, subcutaneous tumor plus intravenous effector cells; assay type: in vivo, DKO mice; conditions: s.c. HCC1954; for tumor volume changes, PD1/PDL1 blockade resistant model: i.v. PBMC 7.5×10^6 once per week for 2 weeks, 100 μg each twice per week for 4 weeks
Text: For in vivo therapy studies, BALB-Rag2-/−IL-2R-γc-KO (“DKO”) mice (derived from colony of Dr. Mamoru Ito, CIEA, Kawasaki, Japan; see, e.g., Koo et al., 2009, Expert Rev Vaccines 8:113-20 and Andrade et al., 2011, Arthritis Rheum 63:2764-73) were used. […] Subcutaneous xenografts were created with 5×10^6 cells suspended in Matrigel (Corning Corp, Tewksbury Mass.) and implanted in the flank of DKO mice. Effector peripheral blood mononuclear cell (PBMC) cells were purified from buffy coats purchased from the New York Blood Center. Prior to every experimental procedure, PBMCs were analyzed for their percentage of CD3, CD4, CD8 and CD56 cells to ensure consistency. […] Tumor size was measured using (1) hand-held TM900 scanner (Pieira, Brussels, BE); (2) Calipers; or (3) bioluminescence. Bioluminescence imaging was conducted using the Xenogen In Vivo Imaging System (IVIS) 200 (Caliper LifeSciences). Briefly, mice were injected intravenously with 0.1 mL solution of D-luciferin (Gold Biotechnology; 30 mg/mL stock in PBS). Images were collected 1 to 2 minutes after injection using the following parameters: a 10- to 60-second exposure time, medium binning, and an 8 f/stop. Bioluminescence image analysis was performed using Living Image 2.6 (Caliper LifeSciences).
For in vivo therapy studies, BALB-Rag2-/−IL-2R-γc-KO (DKO) mice (derived from colony of Dr. Mamoru Ito, CIEA, Kawasaki, Japan)(Koo et al., Expert Rev Vaccines 2009; 8:113-20; Andrade et al., Arthritis Rheum 2011; 63:2764-73) were used. […] Effector PBMC cells and ATCs were prepared as described above. Prior to every experimental procedure, PBMCs and ATCs were analyzed by FACS for their percentage of CD3, CD4, CD8 and CD56 cells to ensure consistency. […] Tumor size was measured using 1) hand-held TM900 scanner (Pieira, Brussels, BE), 2) Calipers, or 3) Bioluminescence. […]

[7] = target: CD3 (Homo sapiens, UniProt P07766); assay: Binding affinity analysis by Biacore (Surface Plasmon Resonance); conditions: antigen CD3, Biacore
Chain of CD3 (P07766 23-126 limits assumed): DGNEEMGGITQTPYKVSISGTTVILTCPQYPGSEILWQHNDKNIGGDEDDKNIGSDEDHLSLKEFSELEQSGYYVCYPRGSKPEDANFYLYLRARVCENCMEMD
Experimental: Binding assays were performed by Surface Plasmon Resonance using Biacore T100 similar as described in Okazaki et al., 2004, J Mol Biol; 336(5): 1239-1249.

[8] = tested on: HER2-positive cells; assay: Blocking of HER2-BsAb induced T cell cytotoxicity; assay type: cell-based, human; conditions: HER2-positive cells pre-incubated with blocking antibody
Experimental: as §1

[9] = tested on: naïve T cells; assay: T cell proliferation assay (WST-8); assay type: cell-based, human; conditions: 67 nM antibody, absence of tumor targets, 6 days
Experimental: For T cell proliferation, naïve T cells were purified from human PBMC using Pan T cell isolation kit (Miltenyi Biotec). 2×10^5 purified T cells were mixed with different antibodies in 96-well cell culture plate to a final volume of 250 μl/well. T cells were cultured and maintained in RPMI-1640 supplemented with 10% FBS in 37° C. for 6 days. T cell proliferation was quantitated using the WST-8 kit as described above.

[10] = tested on: naïve T cells with or without NCI-N87 tumor cells; assay: Cytokine release assay with naive T cells; assay type: cell-based, human; conditions: 16.7 nM antibody, 24 hours
Experimental: Cytokine release was assayed as previously described (Ahmed et al., Oncolmmunology 2015; 4:e989776), using naïve T cells prepared as described above. T cells (200,000/well) were cultured with or without NCI-N87 tumor cells (10,000/well) for 24 hours before supernatants being harvested for ELISA-based cytokine assay.

[11] = tested on: HER2(+) SCCHN cell line PCI-13; assay: Blocking of HER2-BsAb T-cell cytotoxicity by trastuzumab or huOKT3; assay type: cell-based, human; conditions: 0.1 μg/mL HER2-BsAb with 10 μg/mL blocking antibody
Experimental: as §2

CS(=O)(=O)CCNCc1ccc(-c2ccc3ncnc(Nc4ccc(OCc5cccc(F)c5)c(Cl)c4)c3c2)o1 [lapatinib]
effect of pretreatment on HER2-BsAb mediated cytotoxicity [1]: increased sensitivity | sensitivity of cells in proliferation assay [2]: resistant | sensitivity of cells in proliferation assay [3]: minimal sensitivity | sensitivity of cells in proliferation assay [4]: pan-resistant | inhibition of cell proliferation (positive control) [5]: strongest inhibition of cell proliferation

Pembrolizumab
tumor volume changes, PD1/PDL1 blockade resistant model [6]: no effect

C#Cc1cccc(Nc2ncnc3cc(OCCOC)c(OCCOC)cc23)c1 [erlotinib]
sensitivity of cells in proliferation assay [2]: resistant | sensitivity of cells in proliferation assay [3]: minimal sensitivity | sensitivity of cells in proliferation assay [4]: pan-resistant

huOKT3 IgG1-aGlyco: parental aglycosylated huOKT3 IgG1
Kd [7]: 64.6 nM | koff [7]: 0.109 s⁻¹ | kon [7]: 1.68e+06 M⁻¹ s⁻¹

huOKT3: humanized OKT3 anti-CD3 IgG1, same variable sequences as in huOKT3 scFv
tumor growth ([6]; i.v. PBMC once a week for 3 weeks, i.v. antibody twice a week for 3 weeks): only modest effects | blocking of the ability of HER2-BsAb to induce T cell cytotoxicity [8]: blocked | T cell proliferation [9]: robust T cell proliferation | cytokine release in the absence of tumor targets [10]: substantially more cytokines | blocking of HER2-BsAb mediated T-cell cytotoxicity [11]: prevented

Atezolizumab
tumor volume changes, PD1/PDL1 blockade resistant model [6]: no effect

CCOc1cc2ncc(C#N)c(Nc3ccc(OCc4ccccn4)c(Cl)c3)c2cc1NC(=O)/C=C/CN(C)C [neratinib]
sensitivity of cells in proliferation assay [2]: resistant | sensitivity of cells in proliferation assay [3]: minimal sensitivity | sensitivity of cells in proliferation assay [4]: pan-resistant

huOKT3 Fab: monovalent Fab prepared from huOKT3 IgG1
T cell proliferation [9]: negligible effects | cytokine release in the absence of tumor targets [10]: background cytokine release
